{"source": "patent US20220389058A1", "about": "“PEPTIDES AND COMPOSITIONS FOR USE IN COSMETICS AND MEDICINE” (LIPOTRUE, S.L., priority 2019, published 2022)", "key": {"[1]": {"tested_on": "Human Epidermal Keratinocytes (HEKa)", "experiment": "Innate antimicrobial immunity related genes, RT-qPCR in HEKa (Example 20)", "assay_type": "cell-based", "details": "0.01 mg/mL, 6 h"}, "[2]": {"experiment": "Lipid peroxidation, TBARS assay (Example 13)", "assay_type": "biochemical", "details": "0.01, 0.05, 0.1 and 0.5 mg/mL; 2 hours at 37° C.; vs negative control", "method": "Briefly, Trolox (positive control), 0.01, 0.05, 0.1 and 0.5 mg/mL of peptide Ac-SEQ ID NO: 1-NH2 in presence of small unilamellar vesicles of egg yolk phosphatidylcholine (EYPC), a substrate for lipid peroxidation were incubated for 2 hours at 37° C. in the presence of thiobarbituric acid (TBA). A fluorimetric method was used to evaluate the % of lipid peroxidation compared to the negative control (sample only with small unilamellar vesicles of egg yolk phosphatidylcholine)."}, "IL33": {"tested_on": "IL33", "experiment": "IL33 expression modulation by RT-qPCR in HEKa cells (Example 7)", "assay_type": "cell-based, Human", "details": "0.01 mg/mL, 24 hours", "method": "A stock solution of the peptide was prepared in water at 1 mg/mL. Working solution was freshly prepared at the specified concentration from stock solution in the corresponding supplemented medium.\nRNA (ribonucleic acid) extraction and RT-qPCR (reverse transcription quantitative polymerase chain reaction) were performed. Briefly, HDFa and HEKa cells were seeded in duplicate (n=2) in 6-well plates at a density of 4×10^5 cells/well and maintained at standard culture conditions (106 Medium supplemented with 1% (v/v) LSGS for HDFa cells; Medium Epilife supplemented with 1% (v/v) EDGS and 1% (v/v) penicillin/streptomycin for HEKa cells; 37° C., 95% room humidity, 5% CO2) for 24 hours. Then, cells were treated with peptide Ac-SEQ ID NO: 1-NH2, Ac-SEQ ID NO: 2-NH2 or Ac-SEQ ID NO: 3-NH2 at the concentration of 0.01 mg/mL for 24 hours. Untreated cells were used as basal or negative control.\nCells were finally lysed, and replicates were pooled together for RNA extraction using Qiagen RNeasy Mini kit following manufacturer's instructions. Purified RNAs were used to generate the corresponding cDNAs (complementary deoxyribonucleic acids) by reverse transcription using a commercial kit High capacity cDNA reverse transcription kit (Applied Biosystems) which served as templates for amplification. RT-qPCR was performed with the appropriate TaqMan assay probes for IL33 (plus GAPDH—Glyceraldehyde 3-phosphate dehydrogenase—that was used as housekeeping gene) and 2×gene expression Master Mix using StepOne plus Real-Time PCR instrument. […] (Annealing and extension) (Arya, M., Shergill, I. S., Williamson, M., Gommersall, L., Arya, N., Patel, H. R. (2005) Basic principles of real-time quantitative PCR. Expert Rev. Mol. Diagn.; 5(2):209-19; and Jozefczuk, J. and Adjaye, J. (2011) Quantitative real-time PCR-based analysis of gene expression. Methods Enzymol. 500; 99-109).\nThe obtained data was analysed using the ΔΔCt method, which provides the target gene expression values as fold changes in the treated sample compared with an untreated basal sample. […]"}, "integrin α9β1 (Itg9)": {"tested_on": "integrin α9β1 (Itg9)", "experiment": "Integrin α9β1 protein expression, immunofluorescence in HDLMVEC (Example 19)", "assay_type": "cell-based, Human", "method": "HDLMVEC were cultured on coverslips in Microvascular Endothelial Cell Growth (MECG) Medium at a density of 16.000 cell/cm^2 and 37° C. in a humidified atmosphere with 5% CO2.\nWhen cell confluence was around 70-80%, cells were treated with 0.05 mg/mL Ac-SEQ ID NO:1-NH2 in MECG medium for 24 hours. Then, cells were washed twice with PBS, fixed with 4% formaldehyde and permeabilized with Triton 0.2%. Next, samples were blocked for 1 hour with PBS/BSA 5%, in order to avoid nonspecific antibody binding.\nItg9 was stained with 1:50 anti-Itg9 antibody in PBS/BSA 1%, during 1.5 hours at room temperature. After proper washing with PBS, actin was stained with 50 μg/mL Phalloidin during 1 hour at room temperature. Then, cells were washed with PBS and incubated with 5 μg/mL of the secondary antibody Goat anti-Rabbit IgG for 1 hour at room temperature. Finally, coverslips were mounted using Vectashield with DAPI, that stains nuclei, and samples were kept protected from light at 4° C. until microscopic images were acquired.\nMicroscopic images were acquired using 10×objective. […]\nImages were analyzed using Image J software. Shortly, threshold was adjusted to select Itg9 staining and mean fluorescent was measured. The number of cells was counted using the DAPI staining. […]"}}}
{"substance": "Ac-Arg-Arg-Gln-Met-Arg-Glu-NH2 (Ac-RRQMRE-NH2) [Ac-SEQ ID NO: 1-NH2]", "values": [{"measurement": "DEFB1 Fold change vs. Basal", "setting": "[1]", "value": 1.31, "unit": "Fold change"}, {"measurement": "DEFB4A Fold change vs. Basal", "setting": "[1]", "value": 1.58, "unit": "Fold change"}, {"measurement": "IRF1 Fold change vs. Basal", "setting": "[1]", "value": 1.25, "unit": "Fold change"}, {"measurement": "IRF3 Fold change vs. Basal", "setting": "[1]", "value": 1.54, "unit": "Fold change"}, {"measurement": "ISG15 Fold change vs. Basal", "setting": "[1]", "value": 1.38, "unit": "Fold change"}, {"measurement": "MX1 Fold change vs. Basal", "setting": "[1]", "value": 1.93, "unit": "Fold change"}, {"measurement": "OAS2 Fold change vs. Basal", "setting": "[1]", "value": 1.39, "unit": "Fold change"}, {"measurement": "S100A7 Fold change vs. Basal", "setting": "[1]", "value": 2.04, "unit": "Fold change"}, {"measurement": "lipid peroxidation (TBARS)", "setting": "[2]", "value": "able to protect from lipid peroxidation"}, {"measurement": "IL33 gene expression, fold change in treated cells with regard to basal control", "setting": "IL33", "value": "−4.58", "unit": "fold change"}, {"measurement": "% Mean of integrin α9β1 (Itg9) compared to untreated cells", "setting": "integrin α9β1 (Itg9); 0.05 mg/mL, 24 hours, basal = 100.00", "value": 153.56, "unit": "%"}, {"measurement": "increase of the expression of Itg9 when compared with the untreated cells", "setting": "integrin α9β1 (Itg9); 24 hours of treatment", "value": "> 50", "unit": "%"}]}
